This note sets out measurements from patent publication US11358940B2, “K-Ras modulators” (THE REGENTS OF THE UNIVERSITY OF CALIFORNIA, priority 2017, dated 2022).

In assay [1] the target is farnesylated and carboxymethylated KRas (FMe-KRas) (Homo sapiens, UniProt P01116). Description: MALDI-TOF analysis of labeling of fully processed KRas. In kind it is binding.
In the next assay the target is T1, KRas H95C (1-169) (Homo sapiens, UniProt P01116, H95C).
T1 construct: we generated Kras4b H95C (1-169) mutant protein; made in house
Description: MALDI-TOF analysis of KRas H95C reacted with compound. The format is binding. To be noted: reacted for 24 h. An excerpt: Next, we reacted all three epoxides synthesized (structures depicted in FIG. 10A) with KRas H95C (1-169) to investigate reactivity at that site.
Single enantiomers of FNL-0012, compounds […] and FNL-0044 (R), then corresponding single enantiomers of FNL-0030, compounds FNL-0043 (S) and FNL-0045 (R), were synthesized (FIG. 14A). These enantiomers were investigated using a MALDI-TOF MS screen using KRAS4b (1-169) H95C, and also cell-based assays.

In assay [2] the test system is HupT4 pancreas carcinoma cells. Description: Growth arrest in HupT4 cells. In kind it is cell-based. To be noted: 24 h. As to the method: (§1) Cell viability in the presence of compounds (discussed in examples above) was measured using CellTiter-Glo (Promega). Cells were plated in black-walled 384-well plates (Greiner, 781091) at densities in accordance with their doubling time (for MEFs typically 1,000 cells/well in 20 μl), using the Multidrop Combi Reagent Dispenser (Thermo). They were then incubated overnight at 37° C. in a humidified atmosphere of 5% CO2 prior to compound addition.
Compound and dimethylsulfoxide (DMSO) addition to microplates was performed using the Access Laboratory Workstation (Labcyte) and Echo 555 (Labcyte) liquid handler. Source plates with compounds and DMSO were prepared and the Echo 555 was used to transfer 50 nL of compound, DMSO, or both to the appropriate wells. […] of complete culture medium was added to all wells of the microplate after compound addition. The highest final concentration in each assay was 100 μM or 50 μM with between seven to 12 dilutions. The final DMSO concentration in all wells was 0.2%.
[…] All conditions were done in triplicates and experiments performed at least thrice. Cellular ATP levels (an indicator of cell count) were determined with CellTiter-Glo (CTG, Promega G7573) luminescence assay, using an EnVision Plate Reader (PerkinElmer).
Plates were harvested at two time points. […] Growth inhibition was calculated by: […]

Assay [3] relates to KRAS4b G12D, KRAS4b G12V, HRas WT/P53-, and SUIT-2. Description: Cell proliferation experiments with analogues of FNL-0045. In kind it is cell-based. To be noted: FIG. 15B. The method, then: as §1
Compound and dimethylsulfoxide (DMSO) addition to microplates was performed using the Access Laboratory Workstation (Labcyte) and Echo 555 (Labcyte) liquid handler. Source plates with compounds and DMSO were prepared and the Echo 555 was used to transfer 50 nL of compound, DMSO, or both to the appropriate wells. […] of complete culture medium was added to all wells of the microplate after compound addition. […]
Cells were incubated with compounds for 72 h. […] Cellular ATP levels (an indicator of cell count) were determined with CellTiter-Glo (CTG, Promega G7573) luminescence assay, using an EnVision Plate Reader (PerkinElmer).
Plates were harvested at two time points. […] After 72 h incubation, the compound treated plates were harvested using CTG reagent and luminescence read using the EnVision giving control growth (C) and compound treated well (T72) measurements. Growth inhibition was calculated by: […]

For assay [4], the target named is T2, Kras4b H95C (1-169) mutant protein (GppNHp-loaded) (Homo sapiens, UniProt P01116, H95C).
T2 construct: we generated Kras4b H95C (1-169) mutant protein; made in house
Description: Disulfide tethering screen, dose response. In kind it is binding. To be noted: FIG. 2. An excerpt:
Disulfide tethering is a site-directed fragment-based approach to drug-discovery, which allows the screening low-affinity disulfide containing fragments against a native or introduced cysteine residue of a target protein. Fragment binding is reversible, and can be tuned to favor detection of only the strongest bound fragments through the use of increasing concentrations of a reductant (typically β-mecaptoethanol). This binding is not purely driven by reactivity; it is influenced by protein/ligand interactions and is independent of pKa or surface exposure. Bound fragments are detected by mass spectrometry and provide a lead into the drug discovery process.
To target H95 specifically, we generated Kras4b H95C (1-169) mutant protein, and used it (GppNHp-loaded), to search for compounds that could bind to active KRas in close proximity to H95. We performed a tethering screen of a disulfide containing fragment library at the University of California San Francisco.

In a further assay the target is H95 site of KRas (Homo sapiens, UniProt P01116, H95C). Description: Thermal melting analysis. In kind it is binding. To be noted: FIG. 3.
For assay [5], the target named is T3, GDP loaded KRAS4b(1-169) H95C/C118S mutant (Homo sapiens, UniProt P01116, C118S/H95C).
T3 construct: loaded KRAS4b(1-169) H95C/C118S mutant
Description: MALDI-TOF percentage labeling of C95, GDP-loaded protein. In kind it is binding. As to the method:
(§2) Table 1 is a table summarizing levels of covalent labeling to C95 as analyzed by MALDI-TOF MS for a series of synthesized compounds. […] Both species, GDP or nonhydrolyzable analogue of GTP—GppNHp-loaded KRAS4b H95C/C118S, were then reacted with a panel of epoxides and analyzed by MALDI-TOF MS to assess level of covalent modification to C95 after 3 h, 6 h, or 24 h of incubation with the protein. All R isomers show enhanced activity compared to S isomers.
(§3) Example 18: Percentage Labeling Determination for Compounds Targeting KRAS4b Residue 95 by Matrix Assisted Laser Desorption Ionization-Time of Flight Mass Spectrometry (MALDI-TOF)
(§4) The assay uses four tool proteins: • Guanosine diphosphate (GDP) loaded KRAS4b(1-169) H95C/C118S mutant • 5′-Guanylyl imidodiphosphate (GppNHp) loaded KRAS4b(1-169) H95C/C118S mutant • GDP loaded KRAS4b(1-169) C118S mutant • GppNHp loaded KRAS4b(1-169) C118S mutant
(§5) 20 μM Solution of protein in 20 mM HEPES, 150 mM NaCl, 1 mM MgCl2, pH 7.3 buffer was prepared freshly before assay. 20 μl Aliquots of protein were dispensed on 384 well polypropylene plate, then tested compounds (0.8 μl, 10 mM in DMSO) were added to appropriate wells. For each reaction/assay three blank and three control samples were prepared by mixing 20 μl of protein solution with 0.8 μl DMSO or 10 mM standards (compounds 994566 and FB9). The wells content was carefully mixed by aspiration, then plate was sealed by adhesive cover, centrifuged at 2000 g for 1 minute and kept in dark at room temperature for 3, 6 (or 8) and 24 h.
(§6) Before each assay MALDI target (Bruker MPT 384 ground steel BC) was pre-treated by pipetting on each spot 1 μl of saturated sinapinic acid in acetonitrile (ACN).
(§7) After 24 h reaction, 2 μl of reaction mixtures were pipetted out into 20 μl MALDI matrix solution (saturated solution of sinapinic acid in 1:1 ACN:water solution containing 0.75% trifluoroacetic acid (TFA)) deposited on 384 well polypropylene plate. Resulting solution was mixed by aspiration, centrifuged at 2000 g for 1 minute, then 2 μl aliquots were dispensed on pre-treated MALDI target using Beckman Coulter Biomek FX^P 96/Span-8 Laboratory Automation Workstation. Finally, the MALDI target was dried under mild vacuum to produce spots with fine crystalline structure.
MALDI-TOF measurements were performed on Bruker Daltonics ultraflex III TOF-TOF mass spectrometer using linear mode and mass range from 5 to 45 kDa. Detector gain was set to ×9 (1734 V), sample rate to 1 GS/s, smart beam parameter set: 3_medium was used, and the laser frequency was 66.7 Hz. Spectra were automatically collected using custom AutoXecute method. Laser power was auto-adjusted using fuzzy control. The peak selection range was set to be between 19000 and 20200 Da. Peak evaluation uses half width parameter set to be smaller than 30 Da. Fuzzy control used Proteins/Oligonucleotides protocol with minimum half width ⅙ times above threshold. Up to 1500 shots were collected in 500 shot steps. Dynamic termination was implemented to finish data collection when peak intensity was reaching value of 1200 [a.u.].
Spectra were smoothed by SavitzkyGolay algorithm using 5 m/z width and three cycles. Centroid peak detection algorithm was used with signal to noise threshold set to 4, relative intensity threshold 2%, minimum intensity threshold 20 [a.u.], peak width 10 m/z and TopHat baseline subtraction. Peak intensity and area under the peak were evaluated and recorded for all peaks between 19248 Da and 20500 Da for H95/C118 mutant and 19285 Da and 20500 Da for C118 mutant respectively.
Percent of labeling was calculated using followed equation:
[formula] Similar results were obtained when peak area instead of peak height was used for calculations, however peak height method produced more reliable data in case of poor quality spectra.

In assay [6] the target is T4, GppNHp loaded KRAS4b(1-169) H95C/C118S mutant (Homo sapiens, UniProt P01116, C118S/H95C).
T4 construct: loaded KRAS4b(1-169) H95C/C118S mutant
Description: MALDI-TOF percentage labeling of C95, GppNHp-loaded protein. The format is binding. The method, then: as §2
150 to 300 μM solution of GDP loaded protein in KRAS buffer was prepared (20 mM HEPES, 150 mM NaCl, 1 mM MgCl2, 0.05 mM TCEP, pH 7.3). To this was added vigorously 1500×molar excess of 1 M ammonium sulfate in KRAS buffer, and the combination mixed gently by inverting tube. Next was prepared 250 mM solution of GppNHp (150 molar excess of GppNHp to protein; keep it on ice). To the protein was pipetted 10% of prepared GppNHp solution, then suspension of alkaline phosphatase from calf intestine on agarose was added (Sigma-Aldrich, P0726) to have 2 units of enzyme per each mg of protein. The reaction mixture was incubated at room temperature, rotating end-over for 1 h 30 min. The alkaline phosphatase was removed on agarose beads by filtering solution to a new vial using Millex-GP syringe filter. Remaining solution of GppNHp was added and incubated for additional 45 min. At the end of the exchange the protein was filtered again, placed on ice, and purified on NGC medium-pressure chromatography system (Bio-Rad). Five in-lane connected desalting columns (5×GE Healthcare HiTrap Desalting columns 5 ml, 17-1408-01) were used with isocratic elution of KRAS buffer at 4 ml/min. The protein elution was monitored at 280 nm. The concentration of final protein was evaluated by NanoDrop 2000 spectrophotometer (Thermo Fisher) using molar attenuation coefficient ε=19685 l·mol^−1·cm^−1. The quality of the protein was confirmed by MALDI and the exchange rate was assessed by HPLC based assay.
as §3, §4, §5, §6, §7
MALDI-TOF measurements were performed on Bruker Daltonics ultraflex III TOF-TOF mass spectrometer using linear mode and mass range from 5 to 45 kDa. […]

On to `O=C(Cc1ccc(Cl)c(Cl)c1)NCC1CO1` (stereo not shown) [FNL-0010], for which, in assay [1], the “covalent labeling of FMe-KRas” value was “did not label”. Moreover, the “covalent modification of C95” value at KRas H95C (1-169) is listed as “covalently labeled C95”. In assay [2], the “growth arrest / cell proliferation” value is listed as “did not affect cell proliferation”.

As for `Cn1nc(C(=O)NCc2cn(C[C@@H]3CO3)nn2)c2ccccc21` [FNL-0088], the “proliferation assay, R enantiomer compared with S enantiomer FNL-0090” value in assay [3] is on record as “compared favorably”.

With `CN(C)CCSSCCNC(=O)Cc1ccc(Cl)c(Cl)c1` [compound 917105], the “binding at H95 site of KRas in dose response experiments” value (shortened to “binding at H95 site of KRas”) in assay [4] is on record as “strong binders”. For the same compound, the “shift in Tm upon fragment binding” value on H95 site of KRas was “significant shifts in Tm”.

Take `Cc1ccc(S(=O)(=O)c2cn(CCSSCCN(C)C)nn2)cc1` [compound 966844]: the “binding at H95 site of KRas” value in assay [4] is on record as “strong binders”. Besides, the “shift in Tm upon fragment binding” value on H95 site of KRas is recorded as “significant shifts in Tm”.

`CN(C)CCSSCCn1cc(CNC(=O)c2n[nH]c3ccccc23)nn1` [compound 966854]: the “binding at H95 site of KRas” value in assay [4] is on record as “strong binders”. Moreover, the “shift in Tm upon fragment binding” value at H95 site of KRas was “significant shifts in Tm”.

Regarding `Cn1nc(C(=O)NCc2cn(C[C@@H]3CO3)nn2)c2ccccc21` [drawing 514], the “level of covalent labeling to C95 (percent of labeling), GDP, 3 h” value in assay [5] (3 h incubation) was found to be 3%. Moreover, in assay [5] (6 h incubation), the “level of covalent labeling to C95 (percent of labeling), GDP, 6 h” value turned out to be 9%. In assay [5] (24 h incubation), the “level of covalent labeling to C95 (percent of labeling), GDP, 24 h” value was 38%. In addition, the “level of covalent labeling to C95 (percent of labeling), GppNHp, 3 h” value in assay [6] (3 h incubation) is given as 0%. Besides, in assay [6] (6 h incubation), the “level of covalent labeling to C95 (percent of labeling), GppNHp, 6 h” value was 3%. Moreover, the “level of covalent labeling to C95 (percent of labeling), GppNHp, 24 h” value in assay [6] (24 h incubation) came to 13%.
